The values below are quoted from earlier work in article PMC9851200, “Multiparameter phenotypic screening for endogenous TFEB and TFE3 translocation identifies novel chemical series modulating lysosome function” (Autophagy, 2022).

Holding throughout (design): method as in original PKIS2 published data
The target in data set [1] is T1, kinases (KINOMEscan panel) (Homo sapiens, UniProt O75385).
T1 sequence (O75385 1-1050): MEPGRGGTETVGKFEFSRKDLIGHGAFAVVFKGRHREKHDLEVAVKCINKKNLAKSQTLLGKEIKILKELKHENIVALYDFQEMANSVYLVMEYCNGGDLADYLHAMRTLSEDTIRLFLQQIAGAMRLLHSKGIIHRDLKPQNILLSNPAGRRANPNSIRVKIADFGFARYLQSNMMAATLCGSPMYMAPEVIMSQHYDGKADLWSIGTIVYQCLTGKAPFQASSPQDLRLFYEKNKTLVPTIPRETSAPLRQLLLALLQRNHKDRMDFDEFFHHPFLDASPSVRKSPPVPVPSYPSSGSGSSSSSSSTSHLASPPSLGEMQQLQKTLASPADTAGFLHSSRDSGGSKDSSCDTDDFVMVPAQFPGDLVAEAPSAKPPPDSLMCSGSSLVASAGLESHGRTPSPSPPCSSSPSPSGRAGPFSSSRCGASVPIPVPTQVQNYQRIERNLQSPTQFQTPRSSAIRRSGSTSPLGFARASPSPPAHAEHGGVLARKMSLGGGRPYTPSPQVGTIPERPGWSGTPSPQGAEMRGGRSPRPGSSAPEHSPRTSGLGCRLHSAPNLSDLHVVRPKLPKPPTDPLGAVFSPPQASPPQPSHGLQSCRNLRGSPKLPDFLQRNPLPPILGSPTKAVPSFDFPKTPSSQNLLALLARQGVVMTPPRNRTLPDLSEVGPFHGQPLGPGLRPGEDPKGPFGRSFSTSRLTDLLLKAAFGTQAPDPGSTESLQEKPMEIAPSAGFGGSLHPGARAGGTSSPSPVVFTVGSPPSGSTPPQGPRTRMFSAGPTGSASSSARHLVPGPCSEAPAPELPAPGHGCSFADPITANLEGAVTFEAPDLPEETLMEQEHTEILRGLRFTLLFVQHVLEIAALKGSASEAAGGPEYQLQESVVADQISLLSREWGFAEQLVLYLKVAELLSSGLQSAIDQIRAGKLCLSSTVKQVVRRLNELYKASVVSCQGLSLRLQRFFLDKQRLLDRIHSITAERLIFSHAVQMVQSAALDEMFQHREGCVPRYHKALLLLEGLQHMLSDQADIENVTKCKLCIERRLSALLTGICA
Particulars: Published KINOMEscan; ref original PKIS2 published data; cited from earlier work.

Data set [2] concerns the target kinases (KINOMEscan panel) (Homo sapiens, UniProt Q13177). Particulars: PAK2; Published KINOMEscan; ref original PKIS2 published data; cited from earlier work.
The target of data set [3] is kinases (KINOMEscan panel) (Homo sapiens, UniProt Q9HCP0). Particulars: kinase CSNK1G1; Published KINOMEscan; ref original PKIS2 published data; cited from earlier work.
Chain of kinases (KINOMEscan panel) (Homo sapiens, UniProt Q9HCP0) (Q9HCP0 whole entry): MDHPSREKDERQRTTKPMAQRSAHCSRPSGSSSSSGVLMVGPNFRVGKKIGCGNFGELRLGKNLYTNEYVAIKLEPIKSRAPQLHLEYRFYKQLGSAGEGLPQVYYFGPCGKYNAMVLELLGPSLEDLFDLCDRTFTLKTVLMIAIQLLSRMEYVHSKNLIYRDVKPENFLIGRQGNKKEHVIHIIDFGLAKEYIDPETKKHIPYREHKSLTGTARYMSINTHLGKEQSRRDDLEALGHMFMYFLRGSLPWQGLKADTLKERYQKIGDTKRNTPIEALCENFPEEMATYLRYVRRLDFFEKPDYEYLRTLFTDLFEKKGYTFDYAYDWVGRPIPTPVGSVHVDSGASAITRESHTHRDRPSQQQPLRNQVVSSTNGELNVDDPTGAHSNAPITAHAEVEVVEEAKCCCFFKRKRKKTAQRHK
The target in data set [4] is kinases (KINOMEscan panel) (Homo sapiens, UniProt Q13555). Particulars: CAMK2G; Published KINOMEscan; ref original PKIS2 published data; cited from earlier work.
Chain of kinases (KINOMEscan panel) (Homo sapiens, UniProt Q13555) (Q13555 whole entry): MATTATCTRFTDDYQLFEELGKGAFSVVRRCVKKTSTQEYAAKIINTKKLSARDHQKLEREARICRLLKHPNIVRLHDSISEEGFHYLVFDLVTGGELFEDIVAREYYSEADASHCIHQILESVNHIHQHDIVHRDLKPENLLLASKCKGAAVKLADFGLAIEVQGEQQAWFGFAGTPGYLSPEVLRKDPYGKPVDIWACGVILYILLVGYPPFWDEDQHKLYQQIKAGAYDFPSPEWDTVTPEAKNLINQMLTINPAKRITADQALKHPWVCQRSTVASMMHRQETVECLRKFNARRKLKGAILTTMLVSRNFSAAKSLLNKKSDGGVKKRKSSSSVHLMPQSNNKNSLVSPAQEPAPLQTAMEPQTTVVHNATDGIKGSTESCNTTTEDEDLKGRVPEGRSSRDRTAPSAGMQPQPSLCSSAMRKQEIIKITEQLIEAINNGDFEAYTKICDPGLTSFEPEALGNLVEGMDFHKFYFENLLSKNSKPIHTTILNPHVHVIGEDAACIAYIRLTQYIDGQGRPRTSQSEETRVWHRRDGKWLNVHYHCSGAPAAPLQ
Data set [5] deals with T2, kinases (KINOMEscan panel) (Homo sapiens, UniProt Q13470).
T2 sequence (Q13470 1-666): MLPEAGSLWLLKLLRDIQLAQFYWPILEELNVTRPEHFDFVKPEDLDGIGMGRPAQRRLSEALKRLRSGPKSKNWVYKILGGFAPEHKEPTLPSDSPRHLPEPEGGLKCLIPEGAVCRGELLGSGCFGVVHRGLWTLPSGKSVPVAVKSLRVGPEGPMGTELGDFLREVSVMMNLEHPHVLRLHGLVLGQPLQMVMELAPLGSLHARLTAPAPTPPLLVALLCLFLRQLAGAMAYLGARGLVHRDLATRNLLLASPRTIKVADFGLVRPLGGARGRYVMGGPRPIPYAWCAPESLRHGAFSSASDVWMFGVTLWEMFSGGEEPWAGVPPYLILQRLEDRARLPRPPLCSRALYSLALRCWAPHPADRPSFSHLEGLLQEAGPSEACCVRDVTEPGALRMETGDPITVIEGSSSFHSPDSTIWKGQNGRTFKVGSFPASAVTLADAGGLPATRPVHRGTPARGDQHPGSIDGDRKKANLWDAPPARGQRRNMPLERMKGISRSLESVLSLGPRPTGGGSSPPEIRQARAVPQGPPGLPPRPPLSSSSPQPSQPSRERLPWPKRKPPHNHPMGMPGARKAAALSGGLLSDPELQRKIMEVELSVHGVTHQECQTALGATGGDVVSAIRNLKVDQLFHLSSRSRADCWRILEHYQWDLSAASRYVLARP
Particulars: TNK1; Published KINOMEscan; ref original PKIS2 published data; cited from earlier work.

In data set [6] the target is T3, kinases (KINOMEscan panel) (Homo sapiens, UniProt Q96PN8).
T3 sequence (Q96PN8 1-268): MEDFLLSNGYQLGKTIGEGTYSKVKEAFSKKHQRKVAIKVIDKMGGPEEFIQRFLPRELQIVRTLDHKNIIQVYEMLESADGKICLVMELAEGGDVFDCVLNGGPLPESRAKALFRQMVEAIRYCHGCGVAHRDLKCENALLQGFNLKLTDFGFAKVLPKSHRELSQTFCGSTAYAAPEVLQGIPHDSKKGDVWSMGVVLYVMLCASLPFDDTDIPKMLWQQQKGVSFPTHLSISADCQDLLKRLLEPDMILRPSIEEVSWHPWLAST
Particulars: kinase TSSK3; Published KINOMEscan; ref original PKIS2 published data; cited from earlier work.

Data set [7] has as its target kinases (KINOMEscan panel) (Homo sapiens, UniProt Q9UQM7). Particulars: kinase CAMK2A; Published KINOMEscan; ref original PKIS2 published data; cited from earlier work.
Data set [8] deals with kinases (KINOMEscan panel) (Homo sapiens, UniProt Q15303). Particulars: kinase ERBB4; Published KINOMEscan; ref original PKIS2 published data; cited from earlier work.
Chain of kinases (KINOMEscan panel) (Homo sapiens, UniProt Q15303) (Q15303 26-1308): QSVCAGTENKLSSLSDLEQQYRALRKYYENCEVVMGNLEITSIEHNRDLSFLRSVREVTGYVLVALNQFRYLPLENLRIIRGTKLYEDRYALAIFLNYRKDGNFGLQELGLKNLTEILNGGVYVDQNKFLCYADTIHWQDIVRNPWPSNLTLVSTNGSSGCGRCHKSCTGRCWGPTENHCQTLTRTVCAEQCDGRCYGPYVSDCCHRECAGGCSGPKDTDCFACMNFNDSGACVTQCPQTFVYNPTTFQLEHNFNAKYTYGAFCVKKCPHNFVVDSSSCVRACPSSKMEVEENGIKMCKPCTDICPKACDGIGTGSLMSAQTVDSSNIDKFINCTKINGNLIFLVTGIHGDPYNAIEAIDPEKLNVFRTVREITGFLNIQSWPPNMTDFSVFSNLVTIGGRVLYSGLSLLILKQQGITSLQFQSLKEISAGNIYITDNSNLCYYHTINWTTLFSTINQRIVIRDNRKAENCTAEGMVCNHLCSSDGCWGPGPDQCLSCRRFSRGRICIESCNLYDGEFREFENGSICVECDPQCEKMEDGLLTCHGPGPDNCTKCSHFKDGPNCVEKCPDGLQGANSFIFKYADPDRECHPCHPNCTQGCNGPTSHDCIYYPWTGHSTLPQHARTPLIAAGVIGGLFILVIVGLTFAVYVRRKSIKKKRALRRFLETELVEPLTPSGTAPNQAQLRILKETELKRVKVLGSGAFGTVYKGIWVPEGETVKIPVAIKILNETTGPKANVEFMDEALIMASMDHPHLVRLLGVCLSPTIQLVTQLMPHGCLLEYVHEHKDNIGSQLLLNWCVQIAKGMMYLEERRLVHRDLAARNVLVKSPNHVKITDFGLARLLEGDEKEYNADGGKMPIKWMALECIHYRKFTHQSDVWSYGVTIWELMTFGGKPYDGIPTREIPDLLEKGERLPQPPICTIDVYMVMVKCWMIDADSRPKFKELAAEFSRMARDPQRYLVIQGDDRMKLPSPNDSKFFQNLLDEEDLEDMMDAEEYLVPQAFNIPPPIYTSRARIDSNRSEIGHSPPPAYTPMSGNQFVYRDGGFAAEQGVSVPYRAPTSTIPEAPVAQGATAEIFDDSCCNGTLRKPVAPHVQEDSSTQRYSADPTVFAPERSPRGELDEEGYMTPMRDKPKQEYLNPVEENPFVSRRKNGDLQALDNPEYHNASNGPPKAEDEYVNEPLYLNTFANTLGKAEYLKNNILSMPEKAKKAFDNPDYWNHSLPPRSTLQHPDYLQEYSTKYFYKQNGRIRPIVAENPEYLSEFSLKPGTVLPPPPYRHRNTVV

Chain of kinases (KINOMEscan panel) (Homo sapiens, UniProt Q13177) (Q13177 whole entry): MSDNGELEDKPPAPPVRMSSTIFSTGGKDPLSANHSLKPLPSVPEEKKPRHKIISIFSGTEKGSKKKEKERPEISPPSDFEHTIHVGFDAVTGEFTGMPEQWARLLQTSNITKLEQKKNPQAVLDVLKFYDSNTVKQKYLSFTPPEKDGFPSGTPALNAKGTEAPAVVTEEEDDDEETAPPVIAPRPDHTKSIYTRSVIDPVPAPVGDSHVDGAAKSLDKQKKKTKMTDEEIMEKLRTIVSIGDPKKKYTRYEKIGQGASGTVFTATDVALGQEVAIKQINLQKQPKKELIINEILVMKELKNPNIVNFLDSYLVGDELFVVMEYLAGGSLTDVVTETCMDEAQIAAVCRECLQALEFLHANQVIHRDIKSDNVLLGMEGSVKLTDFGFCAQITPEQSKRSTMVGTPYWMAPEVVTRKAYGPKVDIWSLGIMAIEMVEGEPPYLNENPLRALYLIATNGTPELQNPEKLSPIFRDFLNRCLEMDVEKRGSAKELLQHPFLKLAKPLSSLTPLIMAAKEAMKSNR
Chain of kinases (KINOMEscan panel) (Homo sapiens, UniProt Q9UQM7) (Q9UQM7 whole entry): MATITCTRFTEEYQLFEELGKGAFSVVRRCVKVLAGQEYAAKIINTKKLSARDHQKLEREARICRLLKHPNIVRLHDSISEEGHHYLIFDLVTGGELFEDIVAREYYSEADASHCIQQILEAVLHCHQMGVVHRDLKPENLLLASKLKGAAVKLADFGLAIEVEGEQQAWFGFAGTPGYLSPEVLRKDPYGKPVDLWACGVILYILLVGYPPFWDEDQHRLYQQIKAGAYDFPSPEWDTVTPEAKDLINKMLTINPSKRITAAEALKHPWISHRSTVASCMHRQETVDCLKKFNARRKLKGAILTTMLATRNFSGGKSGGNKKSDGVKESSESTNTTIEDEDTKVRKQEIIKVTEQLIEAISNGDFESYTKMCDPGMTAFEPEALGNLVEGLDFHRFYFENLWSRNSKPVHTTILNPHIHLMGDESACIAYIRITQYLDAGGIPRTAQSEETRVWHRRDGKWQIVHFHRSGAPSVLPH

On to `Cc1cccc(-c2nc(Nc3ccncc3)c3ccccc3n2)n1` [NK215], for which the “KINOMEscan ULK1” value in data set [1] was 0. For the same compound, the “KINOMEscan PAK2” value in data set [2] is 0. Further, in data set [3], the “KINOMEscan CSNK1G1” value was 0. For the same compound, the “KINOMEscan CAMK2G” value in data set [4] was 0. Further, in data set [5], the “KINOMEscan TNK1” value is on record as 39. The “KINOMEscan TSSK3” value in data set [6] is 0. Moreover, the “KINOMEscan CAMK2A” value in data set [7] is listed as 6. Further, the “KINOMEscan ERBB4” value in data set [8] was 0.
